Source: publication PMC8004929, “Whole-Body Pharmacokinetics and Physiologically Based Pharmacokinetic Model for Monomethyl Auristatin E (MMAE)” (Journal of Clinical Medicine, 2021)
Square brackets hold non-standard residues; d marks the D form. Peptide text beside a SMILES is read from it. * marks the point of attachment. Dolaproine = CO[C@@H]([C@@H]1CCCN1)[C@@H](C)C(=O)O; Dil = CC[C@H](C)[C@H](NC)[C@@H](CC(=O)O)OC; X1 = C[C@@H](N*)[C@@H](O)c1ccccc1; NMeV = CN[C@H](C(=O)O)C(C)C

Tests used:
tumor cells [1] = assay: Cell-level tumor disposition model parameters; parameters: species or system mice; settings: Estimated by PBPK model
Description: Characterization and prediction of MMAE concentration at the site of action (i.e., tumor) is essential to establish a reliable exposure–efficacy relationship. Therefore, a cell-level tumor disposition model was incorporated in the MMAE PBPK model. […] Both pathways also depended on the vascular density and tumor size (Equation (20)). MMAE in the tumor extracellular space can influx into the tumor cell and bind to the tubulin. The tubulin-bound MMAE can dissociate from the target and efflux from tumor intracellular space into the extracellular space.
Physiological parameters for mice were obtained from our previously published PBPK model. Radius of the tumor blood capillary ( Rcap ), average distance between two capillaries ( Rkrough ), tumor void volume for MMAE ( ε ), P, D, and efflux rate of MMAE from the cells ( kout ) were obtained from the literature. […] The estimated parameters included (1) permeability coefficient ( PSi) in all tissues except the intestines, thymus, and other compartments for which observed data were not available, (2) intrinsic hepatic clearance ( CLint ), and (3) nonspecific uptake rate of MMAE into cancer cells ( kin) . The model was fitted to the data using the maximum likelihood estimation method in ADAPT version 5 (Biomedical Simulations Resource, University of Southern California, Los Angeles, CA, USA), using the variance model shown in Equation (23). […]

[2] = Derivation of in vivo CLint (in vitro-in vivo extrapolation; NCA with well-stirred model); settings: mice, 0.1 mg/kg i.v.
tumor cells [3] = settings: cited from earlier work
Description: Table 1 A glossary of literature-derived and estimated parameters used for the MMAE PBPK model. | column: Value

tubulin = settings: cited from earlier work
Description: Table 1 A glossary of literature-derived and estimated parameters used for the MMAE PBPK model. | column: Value || Physiological parameters for mice were obtained from our previously published PBPK model. Radius of the tumor blood capillary ( Rcap ), average distance between two capillaries ( Rkrough ), tumor void volume for MMAE ( ε ), P, D, and efflux rate of MMAE from the cells ( kout ) were obtained from the literature.

[4] = mice, assumed from reported plasma protein binding; cited from earlier work
Description: Table 1 A glossary of literature-derived and estimated parameters used for the MMAE PBPK model. | column: Value || Each tissue compartment was further divided into the vascular, endothelial cell, interstitial, and cellular sub-compartments, and vascular space was divided into plasma and blood cells, as shown in Figure 1b. We aimed to make the sub-compartment division the same as our previously published platform antibody PBPK model, and thus, one can easily connect MMAE and an antibody PBPK model to build an ADC PBPK model. The rapid distribution of MMAE between plasma, endothelial cells, and interstitial space was assumed, and thus, the distribution rate between these compartments was set as a valu ... || Plasma protein binding plays a vital role in tissue distribution of small molecule drugs. […] Based on the reported mice data, fu,p was assumed to be 0.2, and it was used as a concentration-independent parameter in the PBPK model. Of note, species-dependence of fraction unbound should be considered when further scaling up the current MMAE PBPK model to different species. Based on free hormone hypothesis, it was assumed that ...

[5] = cited from earlier work
Description: The PK profile of MMAE in plasma dropped rapidly, while concentrations in tissues were retained for a prolonged period of time. This could be because of the binding of MMAE to its intracellular target, tubulin. […] Since plasma and tissue concentration profiles were not parallel, plasma exposure ...

[6] = bile-duct cannulated rat; cited from earlier work
Experimental: The scaling factors used were 135 ± 10 (10^6 cells/g) for hepatocytes and 41.9 ± 24.5 (mg/g) for microsome studies. Metabolic CL and non-metabolic (mostly biliary) CL were assumed to account for 40% and 60% of total CL. This assumption is based on a human mass balance study and a bile-duct cannulated rat study, which reported that ≈60% of MMAE is excreted unchanged in the bile. As such, the CLint extrapolated from in vitro study was 109–126 mL/min (hepatocyte) and 121–462 mL/min (microsome). The CLint approximated from our in vivo data was 146 mL/min using the convent ...

P-glycoprotein = settings: cited from earlier work
Description: Concentration data were not obtained for gastrointestinal tracts and thymus, and thus, an assumption was made when calculating KP values for these tissues based on the result of a quantitative whole-body autoradiography study of trastuzumab-vc-MMAE in rats. The study observed persistent MMAE radioactivity in tissues with rapidly dividing cells such as GI epithelia, bone marrow, spleen, and thymus. Accordingly, apparent KP in GI tracts and thymus were assumed to be the same as in spleen, and they were adjusted for the fractional cellular volume of each tissue. KP values were >1 in all tis ... || The PBPK model of MMAE presented here can further be used to assess drug–drug interactions of MMAE containing ADCs. In vivo and in vitro studies indicate that MMAE is a substrate of CYP3A and P-glycoprotein [34]. As such, the polymorphism of CYP3A and P-glycoprotein may affect the PK of MMAE, and consequently the efficacy and toxicity of MMAE-conjugated ADCs. As such, the MMAE PBPK model can serve as a tool to explore drug interactions of ADCs.

CYP3A = settings: in vivo and in vitro studies; cited from earlier work
Description: The PBPK model of MMAE presented here can further be used to assess drug–drug interactions of MMAE containing ADCs. In vivo and in vitro studies indicate that MMAE is a substrate of CYP3A and P-glycoprotein [34]. As such, the polymorphism of CYP3A and P-glycoprotein may affect the PK of MMAE, and consequently the efficacy and toxicity of MMAE-conjugated ADCs. As such, the MMAE PBPK model can serve as a tool to explore drug interactions of ADCs.

[7] = cited from earlier work; remark: listed apart in the source
Experimental: There are some limitations of our study. First, only one dose level of MMAE was used to build the PBPK model. However, the current 0.1 mg/kg MMAE dose can be high enough to saturate the target, and thus, linear PK can be assumed. […] As more data at lower dose levels become available, the PBPK model can be further refined to elaborate the MMAE–tubulin interaction. Second, the PK profile of free M ...

## CC[C@H](C)[C@@H]([C@@H](CC(=O)N1CCC[C@H]1[C@H](OC)[C@@H](C)C(=O)N[C@H](C)[C@@H](O)c1ccccc1)OC)N(C)C(=O)[C@@H](NC(=O)[C@@H](NC)C(C)C)C(C)C [MMAE, Monomethyl auristatin E] (H-[NMeV]V[Dil][Dolaproine]-X1)
Tumor cells [1]
  kin, first-order influx rate of MMAE from extracellular to intracellular space: 0.185 h⁻¹
[2]
  CLint derived from NCA analysis of in vivo PK data: 150 mL/h
Tumor cells [3]
  kout, first-order efflux rate of MMAE from intracellular to extracellular space: 0.046 h⁻¹
  ε, tumor void volume for MMAE: 0.44
Tumor cells [3]; tumor
  D, diffusion rate across the blood vessels: 0.0104 cm^2/h
tubulin; assumed
  koff, first-order dissociation rate constant between MMAE–tubulin complex: 0.000151 s⁻¹
tubulin; read-out: equilibrium dissociation rate (KD) of MMAE for free tubulin
  Kd: 291 nM
[4]
  fu,p, fraction unbound in plasma: 0.8
[5]
  half-life of MMAE, reported value: 5.7 h
[6]
  MMAE excreted unchanged in the bile: ≈ 60%
P-glycoprotein
  substrate of P-glycoprotein: substrate
CYP3A
  substrate of CYP3A: substrate
[7]; rats, single dose
  dose that induced mortality: > 0.116 mg/kg
[7]; rats
  single-dose no-observed-adverse-effect level (NOAEL): 0.01 mg/kg
[7]; ref in-house data
  contribution of free MMAE to tissue total MMAE exposure following ADC administration: < 20%
